According to the supplement of paper PMC10307832:

How the values were obtained:
Test in all cases: relative viability (nuclei count vs DMSO), 5 days (fraction); higher = more cells survive
NCI-H2085 = tested on: NCI-H2085
Outline: (§1)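 Lung cancer cell lines were seeded in 1536-well plates and dosed by pin tool the next day, with either a single drug or a fixed anchor-drug dose combined with five library-drug doses (not always all listed) spaced in √10 steps. Five days later, one step fixed the cells and stained their nuclei (final 0.05% Triton X-100, 1% formaldehyde, 1 ug/ml Hoechst), and nuclei were counted on 4× images. Relative viability is the nuclei count in treated wells divided by the count in vehicle wells, and each value is the median of duplicate plates.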

NCI-H1755 = tested on: NCI-H1755
Outline: as §1

UMC-11 = tested on: UMC-11
Outline: as §1

NCI-H358 = tested on: NCI-H358
Outline: as §1

NCI-H460 = tested on: NCI-H460
Outline: as §1

LU99A = tested on: LU99A
Outline: as §1

SW 900 = tested on: SW 900
Outline: as §1

LCLC-97TM1 = tested on: LCLC-97TM1
Outline: as §1

NCI-H2170 = tested on: NCI-H2170
Outline: as §1

NCI-H1915 = tested on: NCI-H1915
Outline: as §1

A-427 = tested on: A-427
Outline: as §1

NCI-H2342 = tested on: NCI-H2342
Outline: as §1

HOP-62 = tested on: HOP-62
Outline: as §1

LC-2-ad = tested on: LC-2-ad
Outline: as §1

COR-L 105 = tested on: COR-L 105
Outline: as §1

HCC-366 = tested on: HCC-366
Outline: as §1

HCC-78 = tested on: HCC-78
Outline: as §1

NCI-H1944 = tested on: NCI-H1944
Outline: as §1

NCI-H1793 = tested on: NCI-H1793
Outline: as §1

LXF-289 = tested on: LXF-289
Outline: as §1

EPLC-272H = tested on: EPLC-272H
Outline: as §1

NCI-H1792 = tested on: NCI-H1792
Outline: as §1

SK-LU-1 = tested on: SK-LU-1
Outline: as §1

NCI-H1975 = tested on: NCI-H1975
Outline: as §1

## COc1cc(N2CCC(C(N)=O)CC2)ccc1Nc1nc(N)c(Cl)c(Nc2ccccc2S(=O)(=O)C(C)C)n1 [HG-5-88-01] + O=C(c1cc(Cc2n[nH]c(=O)c3ccccc23)ccc1F)N1CCN(C(=O)C2CC2)CC1 [Olaparib] (partner 8 µM)
NCI-H2085; first compound 0.04 µM
  relative viability: 0.853
NCI-H2085; first compound 0.1265 µM
  relative viability: 0.753
NCI-H2085; first compound 0.4 µM
  relative viability: 0.833
NCI-H2085; first compound 1.265 µM
  relative viability: 0.765
NCI-H2085; first compound 4 µM
  relative viability: 0.871
NCI-H1755; first compound 0.04 µM
  relative viability: 0.811
NCI-H1755; first compound 0.1265 µM
  relative viability: 0.869
NCI-H1755; first compound 0.4 µM
  relative viability: 0.874
NCI-H1755; first compound 1.265 µM
  relative viability: 0.849
NCI-H1755; first compound 4 µM
  relative viability: 0.928
UMC-11; first compound 0.04 µM
  relative viability: 0.35
UMC-11; first compound 0.1265 µM
  relative viability: 0.399
UMC-11; first compound 0.4 µM
  relative viability: 0.45
UMC-11; first compound 1.265 µM
  relative viability: 0.428
UMC-11; first compound 4 µM
  relative viability: 0.274
NCI-H358; first compound 0.04 µM
  relative viability: 0.569
NCI-H358; first compound 0.1265 µM
  relative viability: 0.568
NCI-H358; first compound 0.4 µM
  relative viability: 0.545
NCI-H358; first compound 1.265 µM
  relative viability: 0.242
NCI-H358; first compound 4 µM
  relative viability: 0.466
NCI-H460; first compound 0.04 µM
  relative viability: 0.415
NCI-H460; first compound 0.1265 µM
  relative viability: 0.498
NCI-H460; first compound 0.4 µM
  relative viability: 0.388
NCI-H460; first compound 1.265 µM
  relative viability: 0.356
NCI-H460; first compound 4 µM
  relative viability: 0.503
LU99A; first compound 0.04 µM
  relative viability: 0.266
LU99A; first compound 0.1265 µM
  relative viability: 0.257
LU99A; first compound 0.4 µM
  relative viability: 0.208
LU99A; first compound 1.265 µM
  relative viability: 0.269
LU99A; first compound 4 µM
  relative viability: 0.315
SW 900; first compound 0.04 µM
  relative viability: 0.954
SW 900; first compound 0.1265 µM
  relative viability: 1.06
SW 900; first compound 0.4 µM
  relative viability: 0.867
SW 900; first compound 1.265 µM
  relative viability: 0.848
SW 900; first compound 4 µM
  relative viability: 0.631
LCLC-97TM1; first compound 0.04 µM
  relative viability: 0.434
LCLC-97TM1; first compound 0.1265 µM
  relative viability: 0.396
LCLC-97TM1; first compound 0.4 µM
  relative viability: 0.398
LCLC-97TM1; first compound 1.265 µM
  relative viability: 0.26
LCLC-97TM1; first compound 4 µM
  relative viability: 0.193
NCI-H2170; first compound 0.04 µM
  relative viability: 0.64
NCI-H2170; first compound 0.1265 µM
  relative viability: 0.669
NCI-H2170; first compound 0.4 µM
  relative viability: 0.605
NCI-H2170; first compound 1.265 µM
  relative viability: 0.53
NCI-H2170; first compound 4 µM
  relative viability: 0.545
NCI-H1915; first compound 0.04 µM
  relative viability: 0.259
NCI-H1915; first compound 0.1265 µM
  relative viability: 0.25
NCI-H1915; first compound 0.4 µM
  relative viability: 0.304
NCI-H1915; first compound 1.265 µM
  relative viability: 0.266
NCI-H1915; first compound 4 µM
  relative viability: 0.248
A-427; first compound 0.04 µM
  relative viability: 0.652
A-427; first compound 0.1265 µM
  relative viability: 0.807
A-427; first compound 0.4 µM
  relative viability: 0.762
A-427; first compound 1.265 µM
  relative viability: 0.746
A-427; first compound 4 µM
  relative viability: 0.513
NCI-H2342; first compound 0.04 µM
  relative viability: 0.449
NCI-H2342; first compound 0.1265 µM
  relative viability: 0.538
NCI-H2342; first compound 0.4 µM
  relative viability: 0.473
NCI-H2342; first compound 4 µM
  relative viability: 0.474
HOP-62; first compound 0.04 µM
  relative viability: 0.426
HOP-62; first compound 0.1265 µM
  relative viability: 0.511
HOP-62; first compound 0.4 µM
  relative viability: 0.396
HOP-62; first compound 1.265 µM
  relative viability: 0.538
HOP-62; first compound 4 µM
  relative viability: 0.283
LC-2-ad; first compound 0.04 µM
  relative viability: 0.691
LC-2-ad; first compound 0.1265 µM
  relative viability: 0.692
LC-2-ad; first compound 0.4 µM
  relative viability: 0.725
LC-2-ad; first compound 1.265 µM
  relative viability: 0.692
LC-2-ad; first compound 4 µM
  relative viability: 0.721
COR-L 105; first compound 0.04 µM
  relative viability: 0.752
COR-L 105; first compound 0.1265 µM
  relative viability: 0.765
COR-L 105; first compound 0.4 µM
  relative viability: 0.708
COR-L 105; first compound 1.265 µM
  relative viability: 0.692
COR-L 105; first compound 4 µM
  relative viability: 0.683
HCC-366; first compound 0.04 µM
  relative viability: 0.385
HCC-366; first compound 0.1265 µM
  relative viability: 0.391
HCC-366; first compound 0.4 µM
  relative viability: 0.352
HCC-366; first compound 1.265 µM
  relative viability: 0.39
HCC-366; first compound 4 µM
  relative viability: 0.38
HCC-78; first compound 0.04 µM
  relative viability: 0.868
HCC-78; first compound 0.1265 µM
  relative viability: 0.664
HCC-78; first compound 0.4 µM
  relative viability: 0.511
HCC-78; first compound 1.265 µM
  relative viability: 0.302
HCC-78; first compound 4 µM
  relative viability: 0.422
NCI-H1944; first compound 0.04 µM
  relative viability: 0.414
NCI-H1944; first compound 0.1265 µM
  relative viability: 0.374
NCI-H1944; first compound 0.4 µM
  relative viability: 0.479
NCI-H1944; first compound 1.265 µM
  relative viability: 0.466
NCI-H1944; first compound 4 µM
  relative viability: 0.466
NCI-H1793; first compound 0.04 µM
  relative viability: 0.878
NCI-H1793; first compound 0.1265 µM
  relative viability: 0.84
NCI-H1793; first compound 0.4 µM
  relative viability: 0.848
NCI-H1793; first compound 1.265 µM
  relative viability: 0.651
NCI-H1793; first compound 4 µM
  relative viability: 0.847
LXF-289; first compound 0.04 µM
  relative viability: 0.988
LXF-289; first compound 0.1265 µM
  relative viability: 1.13
LXF-289; first compound 0.4 µM
  relative viability: 1.02
LXF-289; first compound 1.265 µM
  relative viability: 1.07
LXF-289; first compound 4 µM
  relative viability: 1.08
EPLC-272H; first compound 0.04 µM
  relative viability: 0.976
EPLC-272H; first compound 0.1265 µM
  relative viability: 0.785
EPLC-272H; first compound 0.4 µM
  relative viability: 0.959
EPLC-272H; first compound 1.265 µM
  relative viability: 0.495
EPLC-272H; first compound 4 µM
  relative viability: 0.0585
NCI-H1792; first compound 0.04 µM
  relative viability: 0.513
NCI-H1792; first compound 0.1265 µM
  relative viability: 0.424
NCI-H1792; first compound 0.4 µM
  relative viability: 0.434
NCI-H1792; first compound 1.265 µM
  relative viability: 0.397
NCI-H1792; first compound 4 µM
  relative viability: 0.484
SK-LU-1; first compound 0.04 µM
  relative viability: 0.447
SK-LU-1; first compound 0.1265 µM
  relative viability: 0.442
SK-LU-1; first compound 0.4 µM
  relative viability: 0.444
SK-LU-1; first compound 1.265 µM
  relative viability: 0.417
SK-LU-1; first compound 4 µM
  relative viability: 0.295
NCI-H1975; first compound 0.04 µM
  relative viability: 0.834
NCI-H1975; first compound 0.1265 µM
  relative viability: 0.822
NCI-H1975; first compound 0.4 µM
  relative viability: 0.782
NCI-H1975; first compound 1.265 µM
  relative viability: 0.715
NCI-H1975; first compound 4 µM
  relative viability: 0.419
